Results: US20040097468A1, “Method of treating osteoporosis and other bone disorders with upfront loading of bisphosphonates, and kits for such treatment” (priority 2002, published 2004)

Legend:
[1] = test system: humans; assay: Spinal (vertebral) BMD, loading vs standard doses of bisphosphonates over one year; assay type: in vivo, human
Procedure: FIG. 4. illustrates the effects of standard recommended dose of risedronate (35 mg once a week), vs. loading dose of risedronate (for doses, see the section on oral administration of bisphosphonates) on vertebral BMD.
This will then be followed up with once weekly administration (i.e., infrequent administration) of a single dose of similar strength, what is currently used on a longer-term basis.

[2] = test system: osteoporotic patients; settings: intravenous injections 0.5 or 1.0 mg every 3 months for 3 years; cited from earlier work

Question: What does the source list for `NCCCC(O)(P(=O)(O)O)P(=O)(O)O` [alendronate, 4-amino-1-hydroxybutylidene-1,1-bisphosphonic acid monosodium trihydrate]?
Answer: Increase in spinal BMD ([1]; alendronate loading dose, 3 months): +1.2%; Increase in spinal BMD ([1]; alendronate loading dose, 6 months): +3.6%; Increase in spinal BMD ([1]; alendronate loading dose, 12 months): +5.8%; Increase in spinal BMD ([1]; alendronate standard dose (70 mg once a week), 3 months): +0.4%; Increase in spinal BMD ([1]; alendronate standard dose (70 mg once a week), 6 months): +1.1%; Increase in spinal BMD ([1]; alendronate standard dose (70 mg once a week), 12 months): +4.5%

Question: What does the source list for `CCCCCN(C)CCC(O)(P(=O)(O)O)P(=O)(O)O` [ibandronate, 1-hydroxy-3-(N-methyl-N-pentylamino)propylidene-1,1-bisphosphonic acid]?
Answer: Change in BMD [2]: moderate increase in BMD; Change in incidence of new osteoporotic fractures [2]: small, but not significant, decrease

Question: Which “Increase in spinal BMD” value ([1]; risedronate loading dose, 3 months) does the source give for `O=P(O)(O)C(O)(Cc1cccnc1)P(=O)(O)O` [risedronate, 1-hydroxy-2-(3-pyridinyl)-ethylidene-1,1-bisphosphonic acid] here?
Answer: Its value is “+1.5%”.

Question: What about the “Increase in spinal BMD” value ([1]; risedronate loading dose, 6 months) of the same molecule?
Answer: The value was “+4.0%”.

Question: And the “Increase in spinal BMD” value ([1]; risedronate loading dose, 12 months)?
Answer: The value was “+5.6%”.

Question: And the “Increase in spinal BMD” value ([1]; risedronate standard dose (35 mg once a week), 3 months)?
Answer: Its value is “+0.4%”.

Question: And the “Increase in spinal BMD” value ([1]; risedronate standard dose (35 mg once a week), 6 months)?
Answer: Its value is “+2.2%”.

Question: What about the “Increase in spinal BMD” value ([1]; risedronate standard dose (35 mg once a week), 12 months) of the same molecule?
Answer: The value was “+4.3%”.
